Counter-ions that a name gives are not always drawn. Like-named read-outs stand apart in the source and are kept apart here.
Assays:
MOR [1] = target: T1, MOR (Mus musculus, UniProt P42866); assay: MOR [35S]GTPγS functional assay (MOR-CHO membranes); assay type: biochemical; parameters: expressed in transfected cells; host or cells: CHO; conditions: read-out: MOR [35S]GTPγS Binding % Emax of DAMGO
Method: The [^35S]GTPγS functional assay was conducted to determine the efficacy of the compounds at the MOR. […] The Bradford protein assay was utilized to determine and adjust the concentration of protein required for the assay. Nonspecific binding was determined with 20 μM unlabeled GTPγS. Furthermore, 3 μM DAMGO was included in the assay as the maximally effective concentration of a full agonist for the MOR. After incubation, the bound radioactive ligand was separated from the free radioligand by filtration through a GF/B glass fiber filter paper and rinsed three times with ice-cold wash buffer (50 mM Tris-HCl, pH 7.2) using the Brandel harvester. Bound radioactivity was determined by liquid scintillation counting. All assays were determined in duplicate and repeated at least three times. Net stimulated [^35S]GTPγS binding was defined as agonist-stimulated minus basal binding in the absence of agonist. Percent of DAMGO-stimulated [^35S]GTPγS binding was defined as (net-stimulated binding by ligand/net-stimulated binding by 3 μM DAMGO)×100%.
Results were reported as mean values ±SEM.
The [^35S]-GTPγS binding assay was carried out as well to determine the functionality on the MOR of each compound. […] The [^35S]GTPγS functional assay was conducted to determine the efficacy of the compounds at the MOR, KOR and DOR. […] The Bradford protein assay was utilized to determine and adjust the concentration of protein required for the assay. Nonspecific binding was determined with 20 μM unlabeled GTPγS. Furthermore, 3 μM DAMGO/U50488H/SNC80 was included in the assay as the maximally effective concentration of a full agonist for the MOR/KOR/DOR. After incubation, the bound radioactive ligand was separated from the free radioligand by filtration through a GF/B glass fiber filter paper using a Brandel harvester. Bound radioactivity was determined by liquid scintillation counting. All assays were determined in duplicate and repeated at least three times. Net stimulated [^35S]GTPγS binding was defined as agonist-stimulated minus basal binding in the absence of agonist. Percent of DAMGO/U50488H/SNC80 stimulated [^35S]GTPγS binding was defined as (net-stimulated binding by ligand/net-stimulated binding by 3 μM DAMGO U50488H/SNC80)×100%.

KOR [2] = target: T2, KOR (Mus musculus, UniProt P33534); conditions: read-out: Ki (nM) KOR; reference data adopted from literature; cited from earlier work
[3] = target: Human recombinant opioid receptors (MOR) (Homo sapiens, UniProt P35372); conditions: read-out: MOR [35S]-GTPγS Binding EC50; MNTX, reported data; cited from earlier work
[4] = target: Human recombinant opioid receptors (KOR) (Homo sapiens, UniProt P41145); conditions: read-out: KOR [35S]-GTPγS binding EC50; MNTX, reported data; cited from earlier work
[5] = male rats, oral administration; cited from earlier work
mice = assay: carmine red dye study (GI tract motility, morphine-induced constipation)
male Swiss Webster mice [6] = conditions: reference compounds, literature / previous studies; cited from earlier work
morphine-pelleted mice = assay: opioid withdrawal study in morphine-pelleted mice; conditions: for withdrawal symptoms (wet-dog shakes, escape jumps, paw tremors): 1 mg/kg s.c., compared to 1 mg/kg NLX
DOR = target: T3, DOR (Homo sapiens, UniProt P41143); assay: competitive radioligand binding assay, DOR ([3H]diprenorphine, CHO cell membranes); conditions: read-out: Ki (nM) DOR
T3 construct: expressed in transfected cells; host or cells: CHO

male Swiss Webster mice [7] = assay: warm-water tail immersion (tail flick / tail-withdrawal) assay, antinociception; assay type: in vivo, mouse; conditions: Example 1 compounds; 10 mg/kg s.c., 20 min after injection
Method: In this assay, the duration for which mice kept their tails in the warm water was recorded.
All thirty-six compounds' antinociception were examined in tail immersion assay first to preclude any opioid receptor agonists.
Swiss Webster mice (six male mice for each group, 25-35 g, 6-8 weeks old) were used in this assay. Antinociception for all compounds was examined in male Swiss Webster mice. […] To prevent tissue damage, a 10 s maximum cutoff time was imposed. Antinociceptive response was calculated as the percentage of maximum possible effect (% MPE), where % MPE=[(test−control latency)/(10−control latency)]×100.
Warm-water tail immersion assay is a well-established assay for evaluating opioid analgesics, especially MOR agonists. […] In this context, all 24 compounds were first evaluated for their acute antinociception tail-withdrawal assay (FIG. 5A).
The tail-withdrawal test was performed using a water bath with the temperature maintained at 56±0.1° C. Baseline latency was measured before any injections. Each mouse was gently wrapped in a cloth with only the tail exposed. The distal one-third of the tail was immersed perpendicularly in water, and the mouse rapidly flicked the tail from the bath was seen as the first sign of discomfort. The duration of time the tail remained in the water bath was counted as the baseline latency. Untreated mice with baseline latency reaction times ranging from 2 to 4 seconds were used. Test latency was obtained 20 min later after each injection. A 10-second maximum cutoff latency was used to prevent any tissue damage. Antinociception was quantified as the percentage of maximal possible effect (% MPE), which was calculated as % MPE=[(test latency−control latency)/(10−control latency)]×100. The % MPE value was calculated for each mouse using 6 mice per group. Testing compounds were given 10 mg/kg (s.c.) to each mouse.

MOR [8] = target: T1, MOR; conditions: read-out: Ki (nM) MOR; Example 1 compounds (Tables 1, 2)
KOR [9] = target: T2, KOR; assay: competitive radioligand binding assay, KOR ([3H]diprenorphine, CHO cell membranes); parameters: expressed in transfected cells; host or cells: CHO; conditions: read-out: Ki (nM) KOR
[10] = Example 1 compounds (Tables 1, 2)

O=C(CCc1cccs1)N[C@H]1CC[C@@]2(O)[C@H]3Cc4ccc(O)c5c4[C@@]2(CCN3CC2CC2)[C@H]1O5 [Example 1 compound 29, 17-Cyclopropylmethyl-3,14β-dihydroxy-4,5α-epoxy-6α-[3′-(thiophen-2″yl)propanamido]morphinan hydrochloride]
Emax (MOR [1]): 43.7 ± 1.71%

O=C(NC1CCC2(O)C3Cc4ccc(O)c5c4C2(CCN3CC2CC2)C1O5)c1ccncc1 (stereo not drawn) [NAP, 17-cyclopropylmethyl-3,14-dihydroxy-4,5α-epoxy-6β-[(4′-pyridyl)carboxamido]morphinan]
Ki (KOR [2]): 278 ± 8 nM

C[N@+]1(CC2CC2)CC[C@]23c4c5ccc(O)c4O[C@H]2C(=O)CC[C@@]3(O)[C@H]1C5 [MNTX, methylnaltrexone]
EC50 [3]: > 10000 nM | EC50 [4]: > 10000 nM | oral bioavailability [5]: < 1% | blockage of GI motility inhibition by morphine (in words) (mice; 10 mg/kg oral gavage, morphine 5 mg/kg): no blockage was observed

C=CCN1CC[C@]23c4c5ccc(O)c4O[C@H]2C(=O)CC[C@@]3(O)[C@H]1C5 [NLX, naloxone, reference compound]
AD50 mg/kg (95% CL) to antagonize morphine mediated antinociception (male Swiss Webster mice [6]): 0.05 mg/kg | withdrawal symptoms (wet-dog shakes, escape jumps, paw tremors) (morphine-pelleted mice): precipitated withdrawal symptoms

O=C(N[C@@H]1CC[C@@]2(O)[C@H]3Cc4ccc(O)c5c4[C@@]2(CCN3CC2CC2)[C@H]1O5)c1cccs1 [Example 1 compound 26, 17-Cyclopropylmethyl-3,14β-dihydroxy-4,5α-epoxy-6β-(2′-thienylcarboxamido)morphinan hydrochloride]
withdrawal symptoms (wet-dog shakes, escape jumps, paw tremors) (morphine-pelleted mice): significantly fewer wet-dog shakes, escape jumps, and paw tremors | withdrawal symptoms at higher doses (morphine-pelleted mice; 5 mg/kg and above, s.c.): did not precipitate significant withdrawal symptoms at doses as high as 10 times that of NLX

O=C(Cc1ccsc1)N[C@@H]1CC[C@@]2(O)[C@H]3Cc4ccc(O)c5c4[C@@]2(CCN3CC2CC2)[C@H]1O5 [Example 1 compound 34, 17-Cyclopropylmethyl-3,14β-dihydroxy-4,5α-epoxy-6β-(3′-thienylacetamido)morphinan hydrochloride]
Emax (MOR [1]): 26.5 ± 3.17%

Cl.O=C(CCc1cccs1)N[C@@H]1CC[C@@]2(O)[C@H]3Cc4ccc(O)c5c4[C@@]2(CCN3CC2CC2)[C@H]1O5 [Example 1 compound 30, 17-Cyclopropylmethyl-3,14β-dihydroxy-4,5α-epoxy-6β-[3′-(thiophen-2 yl)propanamido]morphinan hydrochloride]
Ki (DOR): 4.87 ± 1.19 nM | antinociceptive effect (% MPE, in words) (male Swiss Webster mice [7]): exhibited antinociception | Ki (MOR [8]): 0.26 ± 0.01 nM | Ki (KOR [9]): 0.23 ± 0.02 nM

17-Cyclopropylmethyl-3,14β-dihydroxy-4,5α-epoxy-6β-(2′-thienylacetamido)morphinan hydrochloride [Example 1 compound 28]
Ki (DOR; [10]): 64.9 ± 2.38 nM

O=C(N[C@@H]1CC[C@@]2(O)[C@H]3Cc4ccc(O)c5c4C2(CCN3CC2CC2)[C@H]1O5)c1ccncc1F [NFP]
AD50 mg/kg (95% CL) to antagonize morphine mediated antinociception (male Swiss Webster mice [6]): 2.82 mg/kg

17-Cyclopropylmethyl-3,14β-dihydroxy-4,5α-epoxy-6α-(2′-thienylacetamido)morphinan hydrochloride [Example 1 compound 27]
Ki (DOR; [10]): 6.92 ± 1.63 nM

O=C(Cc1ccsc1)N[C@H]1CC[C@@]2(O)[C@H]3Cc4ccc(O)c5c4[C@@]2(CCN3CC2CC2)[C@H]1O5 [Example 1 compound 33, 17-Cyclopropylmethyl-3,14β-dihydroxy-4,5α-epoxy-6α-(3′-thienylacetamido)morphinan hydrochloride]
Emax (MOR [1]): 28.6 ± 1.15%

CN1CC[C@]23c4c5ccc(O)c4O[C@H]2[C@@H](O)C=C[C@H]3[C@H]1C5 [morphine]
elongation of pellet defecation time compared to naïve group (mice; morphine 10 mg/kg s.c.): 124 min
